From PubChem BioAssay (NCI)
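All cell lines were grown in 96-well plates and treated with compound for 48 hours. At the TGI there is no net growth.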

Key:
Assay in all cases: NCI tumour cell line growth inhibition, 48 h
NCI-H23 lung = system: NCI-H23 lung
UACC-257 melanoma = system: UACC-257 melanoma
OVCAR-5 ovarian = system: OVCAR-5 ovarian
NCI-H460 lung = system: NCI-H460 lung
OVCAR-4 ovarian = system: OVCAR-4 ovarian
SF-295 CNS = system: SF-295 CNS
LOX IMVI melanoma = system: LOX IMVI melanoma
XF 498 CNS = system: XF 498 CNS
SK-MEL-2 melanoma = system: SK-MEL-2 melanoma
OVCAR-8 ovarian = system: OVCAR-8 ovarian
NCI-H226 lung = system: NCI-H226 lung
RPMI-8226 leukemia = system: RPMI-8226 leukemia
A498 renal = system: A498 renal
HCT-15 colon = system: HCT-15 colon
COLO 205 colon = system: COLO 205 colon
SN12C renal = system: SN12C renal
NCI-H522 lung = system: NCI-H522 lung
M19-MEL melanoma = system: M19-MEL melanoma
DMS 273 small cell lung = system: DMS 273 small cell lung
MALME-3M melanoma = system: MALME-3M melanoma
ACHN renal = system: ACHN renal
K-562 leukemia = system: K-562 leukemia
SK-OV-3 ovarian = system: SK-OV-3 ovarian
RXF 393 renal = system: RXF 393 renal
HCT-116 colon = system: HCT-116 colon
SF-539 CNS = system: SF-539 CNS
HT29 colon = system: HT29 colon
HOP-18 NSCLC = system: HOP-18 NSCLC
A549 NSCLC = system: A549 NSCLC
U251 CNS = system: U251 CNS
SW-620 colon = system: SW-620 colon
SK-MEL-5 melanoma = system: SK-MEL-5 melanoma
OVCAR-3 ovarian = system: OVCAR-3 ovarian
CCRF-CEM leukemia = system: CCRF-CEM leukemia
SNB-75 CNS = system: SNB-75 CNS
DMS 114 small cell lung = system: DMS 114 small cell lung
LXFL 529 NSCLC = system: LXFL 529 NSCLC
UO-31 renal = system: UO-31 renal
TK-10 renal = system: TK-10 renal
SF-268 CNS = system: SF-268 CNS
UACC-62 melanoma = system: UACC-62 melanoma
IGROV1 ovarian = system: IGROV1 ovarian
SNB-78 CNS = system: SNB-78 CNS
786-0 renal = system: 786-0 renal
MOLT-4 leukemia = system: MOLT-4 leukemia
SNB-19 CNS = system: SNB-19 CNS
RXF-631 renal = system: RXF-631 renal
EKVX NSCLC = system: EKVX NSCLC
SK-MEL-28 melanoma = system: SK-MEL-28 melanoma
KM12 colon = system: KM12 colon
DLD-1 colon = system: DLD-1 colon
KM20L2 colon = system: KM20L2 colon
HOP-92 NSCLC = system: HOP-92 NSCLC
CAKI-1 renal = system: CAKI-1 renal
M14 melanoma = system: M14 melanoma
HOP-62 NSCLC = system: HOP-62 NSCLC
HCC-2998 colon = system: HCC-2998 colon
HL-60(TB) leukemia = system: HL-60(TB) leukemia

Measured: TGI

c1ccc(NCn2cnc3ccccc32)cc1
71.6 µM: RPMI-8226 leukemia
not listed: HOP-92 NSCLC | CAKI-1 renal | M14 melanoma | HOP-62 NSCLC | HCC-2998 colon | HL-60(TB) leukemia
> 100 µM: all other assays above

COc1ccc(C)cc1-c1cc(Sc2ccccc2)c(-c2cc(C)ccc2OC)o1
> 100 µM: OVCAR-5 ovarian | SF-295 CNS | LOX IMVI melanoma | XF 498 CNS
not listed: SK-MEL-2 melanoma | RXF 393 renal
> 31.6 µM: all other assays above
